Columns and labels:
giant foxtail = experiment: Test B pre/postemergence giant foxtail; format: in vivo, Setaria faberii
In short: (§1)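 Herbicidal effect was estimated by eye on a ten-point control scale after plants spent twelve to sixteen days in a greenhouse following soil or foliar treatment. Foliar sprays targeted plants at one to four leaves; all doses were formulated in a non-phytotoxic solvent with surfactant.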

morningglory = experiment: Test B pre/postemergence morningglory; format: in vivo, Ipomoea hederacea
In short: as §1

pigweed = experiment: Test B pre/postemergence pigweed; format: in vivo, Amaranthus retroflexus
In short: as §1

rape = experiment: Test B pre/postemergence rape; format: in vivo, Brassica napus
In short: as §1

winter wheat [1] = experiment: Test E winter wheat; format: in vivo, Triticum aestivum; details: Postemergence
In short: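 Each compound, carried in a non-phytotoxic solvent blend including surfactant, was applied (postemergence: over the top of young plants at 1- to 4-leaf stage). Plants stayed in the greenhouse about 21 to 28 days before visual comparison with untreated controls.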

blackgrass = experiment: Test E blackgrass; format: in vivo, Alopecurus myosuroides; details: Preemergence
green foxtail = experiment: Test E green foxtail; format: in vivo, Setaria viridis; details: Preemergence
Italian ryegrass = experiment: Test E Italian ryegrass; format: in vivo, Lolium multiflorum; details: Preemergence
winter wheat [2] = experiment: Test E winter wheat; format: in vivo, Triticum aestivum; details: Preemergence
wild oat = experiment: Test E wild oat; format: in vivo, Avena fatua; details: Preemergence; for Wild oat plant response rating (0 to 100 scale): Rate 250 g/ha
winter barley = experiment: Test E winter barley; format: in vivo, Hordeum vulgare; details: Preemergence
[3] = Postemergence, Rate 31 g/ha, visual rating, scale 0 to 10 (0 no effect, 10 complete control)
[4] = Preemergence, Rate 31 g/ha, visual rating, scale 0 to 10 (0 no effect, 10 complete control)
[5] = Preemergence, Rate 62 g/ha, scale of 0 to 10 where 0 is no effect and 10 is complete control
[6] = Rate 16 g/ha, Postemergence, scale 0 to 10, 0 no effect, 10 complete control
[7] = Rate 16 g/ha, Preemergence, scale 0 to 10, 0 no effect, 10 complete control
[8] = Rate 62 g/ha, Postemergence, scale 0 to 10 (0 no effect, 10 complete control)
[9] = Rate 125 g/ha, Postemergence, scale of 0 to 10 where 0 is no effect and 10 is complete control
[10] = Rate 125 g/ha, Preemergence, scale of 0 to 10 where 0 is no effect and 10 is complete control
[11] = Rate 1000 g/ha, 0 to 100 scale where 0 is no effect and 100 is complete control
[12] = Rate 500 g/ha, 0 to 100 scale, 0 is no effect, 100 is complete control
[13] = Rate 500 g/ha, 0 to 100 scale (0 no effect, 100 complete control)
[14] = Rate 1000 g/ha, 0 to 100 scale, 0 no effect, 100 complete control
[15] = Postemergence, Rate 125 g/ha, scale of 0 to 10 where 0 is no effect and 10 is complete control
[16] = Postemergence, Rate 1000 g/ha, scale 0 to 10 (0 no effect, 10 complete control)
[17] = Preemergence, Rate 125 g/ha, 0 is no effect, 10 is complete control
[18] = Preemergence, Rate 250 g/ha, scale 0 to 10, 0 is no effect, 10 is complete control
[19] = Preemergence, Rate 500 g/ha, scale 0 to 10 (0 no effect, 10 complete control)
[20] = Rate 250 g/ha, Postemergence, scale 0 to 10, 0 is no effect, 10 is complete control
[21] = Rate 500 g/ha, Postemergence, scale 0 to 10
[22] = Rate 1000 g/ha, Preemergence, scale 0 to 10 (0 no effect, 10 complete control)
[23] = Rate 500 g/ha, 0 to 100 scale where 0 is no effect and 100 is complete control
[24] = Postemergence, Rate 250 g/ha, scale 0 to 10, 0 no effect, 10 complete control
[25] = Preemergence, Rate 62 g/ha, scale 0 to 10 (0 no effect, 10 complete control)
[26] = Preemergence, Rate 125 g/ha, scale 0 to 10 (0 no effect, 10 complete control)
[27] = Preemergence, Rate 250 g/ha, scale of 0 to 10 where 0 is no effect and 10 is complete control
[28] = Rate 62 g/ha, Postemergence, scale of 0 to 10 where 0 is no effect and 10 is complete control
[29] = Rate 500 g/ha, Postemergence, scale 0 to 10, 0 no effect, 10 complete control
[30] = Rate 62 g/ha, 0 to 100 scale, 0 no effect, 100 complete control
[31] = Rate 125 g/ha, 0 to 100 scale (0 no effect, 100 complete control)

## C=CCCCn1c(=O)on(C(=O)N(c2ccc(F)cc2)C(C)C)c1=O [Compound 291]
Giant foxtail; [3]
  Giant foxtail plant response rating: 0
Giant foxtail; [4]
  Giant foxtail plant response rating: 8
Giant foxtail; [5]
  Giant foxtail plant response rating: 8
Giant foxtail; [6]
  Giant foxtail plant response rating: 0
Giant foxtail; [7]
  Giant foxtail plant response rating: 7
Giant foxtail; [8]
  Giant foxtail plant response rating: 0
Giant foxtail; [9]
  Giant foxtail plant response rating: 0
Giant foxtail; [10]
  Giant foxtail plant response rating: 9
morningglory; [3]
  Morningglory plant response rating: 1
morningglory; [4]
  Morningglory plant response rating: 0
morningglory; [5]
  Morningglory plant response rating: 0
morningglory; [6]
  Morningglory plant response rating: 1
morningglory; [7]
  Morningglory plant response rating: 0
morningglory; [8]
  Morningglory plant response rating: 4
morningglory; [9]
  Morningglory plant response rating: 4
morningglory; [10]
  Morningglory plant response rating: 0
pigweed; [3]
  Redroot pigweed plant response rating: 0
pigweed; [4]
  Redroot pigweed plant response rating: 0
pigweed; [5]
  Redroot pigweed plant response rating: 0
pigweed; [6]
  Redroot pigweed plant response rating: 0
pigweed; [7]
  Redroot pigweed plant response rating: 0
pigweed; [8]
  Redroot pigweed plant response rating: 0
pigweed; [9]
  Redroot pigweed plant response rating: 0
pigweed; [10]
  Redroot pigweed plant response rating: 0
rape; [3]
  Rape plant response rating: 0
rape; [4]
  Rape plant response rating: 0
rape; [5]
  Rape plant response rating: 0
rape; [6]
  Rape plant response rating: 0
rape; [7]
  Rape plant response rating: 0
rape; [8]
  Rape plant response rating: 0
rape; [9]
  Rape plant response rating: 1
rape; [10]
  Rape plant response rating: 0
Winter wheat [1]; [11]
  Plant response rating, Wheat (winter): 55
Winter wheat [1]; Rate 250 g/ha, 0 to 100 scale where 0 is no effect and 100 is complete control
  Wheat (winter) plant response rating: 30
Winter wheat [1]; [12]
  Plant response rating, Wheat (winter): 40
blackgrass; Rate 250 g/ha
  Blackgrass plant response rating (0 to 100 scale): 30
blackgrass; [13]
  Plant response rating, Blackgrass: 40
blackgrass; [14]
  Plant response rating, Blackgrass: 50
Green foxtail; Rate 250 g/ha
  Green foxtail plant response rating (0 to 100 scale): 55
Green foxtail; [13]
  Plant response rating, Green foxtail: 85
Green foxtail; [14]
  Plant response rating, Green foxtail: 100
Italian ryegrass; Rate 250 g/ha
  I. Ryegrass plant response rating (0 to 100 scale): 70
Italian ryegrass; [13]
  Plant response rating, I. Ryegrass: 100
Italian ryegrass; [14]
  Plant response rating, I. Ryegrass: 90
Winter wheat [2]; Rate 250 g/ha
  Wheat (winter) plant response rating (0 to 100 scale): 35
Winter wheat [2]; [13]
  Plant response rating, Wheat (winter): 50
Winter wheat [2]; [14]
  Plant response rating, Wheat (winter): 60
Wild oat
  Wild oat plant response rating (0 to 100 scale): 20
Wild oat; [13]
  Plant response rating, Wild oat: 50
Wild oat; [14]
  Plant response rating, Wild oat: 60
Winter barley; Rate 250 g/ha
  Barley (winter) plant response rating (0 to 100 scale): 10
Winter barley; [13]
  Plant response rating, Barley (winter): 30
Winter barley; [14]
  Plant response rating, Barley (winter): 20

## Cc1ccccc1-n1c(=O)on(C(=O)N(c2c(F)cccc2F)C(C)C)c1=O [Compound 176]
Giant foxtail; [15]
  Giant foxtail plant response rating: 0
Giant foxtail; [16]
  Giant foxtail plant response rating: 7
Giant foxtail; [17]
  Giant foxtail plant response rating (0 to 10 scale): 6
Giant foxtail; [18]
  Giant foxtail plant response rating: 10
Giant foxtail; [19]
  Giant foxtail plant response rating: 10
Giant foxtail; [20]
  Plant response rating, Giant foxtail: 0
Giant foxtail; [21]
  Giant foxtail plant response rating: 6
Giant foxtail; [22]
  Plant response rating, Giant foxtail: 10
morningglory; [15]
  Morningglory plant response rating: 2
morningglory; [16]
  Morningglory plant response rating: 7
morningglory; [17]
  Morningglory plant response rating (0 to 10 scale): 0
morningglory; [18]
  Morningglory plant response rating: 0
morningglory; [19]
  Morningglory plant response rating: 0
morningglory; [20]
  Plant response rating, Morningglory: 2
morningglory; [21]
  Morningglory plant response rating: 3
morningglory; [22]
  Plant response rating, Morningglory: 0
pigweed; [15]
  Redroot pigweed plant response rating: 0
pigweed; [16]
  Redroot pigweed plant response rating: 1
pigweed; [17]
  Redroot pigweed plant response rating (0 to 10 scale): 0
pigweed; [18]
  Redroot pigweed plant response rating: 0
pigweed; [19]
  Redroot pigweed plant response rating: 0
pigweed; [20]
  Plant response rating, Redroot pigweed: 0
pigweed; [21]
  Redroot pigweed plant response rating: 0
pigweed; [22]
  Plant response rating, Redroot pigweed: 0
rape; [15]
  Rape plant response rating: 0
rape; [16]
  Rape plant response rating: 0
rape; [17]
  Rape plant response rating (0 to 10 scale): 0
rape; [18]
  Rape plant response rating: 0
rape; [19]
  Rape plant response rating: 0
rape; [20]
  Plant response rating, Rape: 0
rape; [21]
  Rape plant response rating: 0
rape; [22]
  Plant response rating, Rape: 3
Winter wheat [1]; Rate 1000 g/ha, 0 to 100 scale, 0 is no effect and 100 is complete control
  Plant response rating, Wheat (winter): 40
Winter wheat [1]; [12]
  Plant response rating, Wheat (winter): 50
blackgrass; Rate 250 g/ha
  Blackgrass plant response rating (0 to 100 scale): 40
blackgrass; [23]
  Plant response rating, Blackgrass: 50
blackgrass; [11]
  Plant response rating, Blackgrass: 75
Green foxtail; Rate 250 g/ha
  Green foxtail plant response rating (0 to 100 scale): 50
Green foxtail; [23]
  Plant response rating, Green foxtail: 70
Green foxtail; [11]
  Plant response rating, Green foxtail: 100
Italian ryegrass; Rate 250 g/ha
  I. Ryegrass plant response rating (0 to 100 scale): 50
Italian ryegrass; [23]
  Plant response rating, I. Ryegrass: 60
Italian ryegrass; [11]
  Plant response rating, I. Ryegrass: 98
Winter wheat [2]; Rate 250 g/ha
  Wheat (winter) plant response rating (0 to 100 scale): 20
Winter wheat [2]; [23]
  Plant response rating, Wheat (winter): 30
Winter wheat [2]; [11]
  Plant response rating, Wheat (winter): 50
Wild oat
  Wild oat plant response rating (0 to 100 scale): 30
Wild oat; [23]
  Plant response rating, Wild oat: 50
Wild oat; [11]
  Plant response rating, Wild oat: 50
Winter barley; Rate 250 g/ha
  Barley (winter) plant response rating (0 to 100 scale): 30
Winter barley; [23]
  Plant response rating, Barley (winter): 40
Winter barley; [11]
  Plant response rating, Barley (winter): 50

## CC(C)N(C(=O)n1oc(=O)n(C(C)C)c1=O)c1ccccc1 [Compound 113]
Giant foxtail; [15]
  Giant foxtail plant response rating: 9
Giant foxtail; [24]
  Giant foxtail plant response rating: 9
Giant foxtail; [25]
  Giant foxtail plant response rating: 9
Giant foxtail; [26]
  Plant response rating, Giant foxtail: 10
Giant foxtail; [27]
  Plant response rating, Giant foxtail: 10
Giant foxtail; [19]
  Giant foxtail plant response rating: 10
Giant foxtail; [28]
  Giant foxtail plant response rating: 9
Giant foxtail; [29]
  Giant foxtail plant response rating: 9
morningglory; [15]
  Morningglory plant response rating: 5
morningglory; [24]
  Morningglory plant response rating: 8
morningglory; [25]
  Morningglory plant response rating: 1
morningglory; [26]
  Plant response rating, Morningglory: 2
morningglory; [27]
  Plant response rating, Morningglory: 7
morningglory; [19]
  Morningglory plant response rating: 8
morningglory; [28]
  Morningglory plant response rating: 5
morningglory; [29]
  Morningglory plant response rating: 10
pigweed; [15]
  Redroot pigweed plant response rating: 4
pigweed; [25]
  Redroot pigweed plant response rating: 8
pigweed; [26]
  Plant response rating, Redroot pigweed: 8
pigweed; [27]
  Plant response rating, Redroot pigweed: 10
pigweed; [19]
  Redroot pigweed plant response rating: 10
pigweed; [28]
  Redroot pigweed plant response rating: 3
pigweed; [20]
  Plant response rating, Redroot pigweed: 6
pigweed; [29]
  Redroot pigweed plant response rating: 7
rape; [15]
  Rape plant response rating: 3
rape; [24]
  Rape plant response rating: 7
rape; [25]
  Rape plant response rating: 4
rape; [26]
  Plant response rating, Rape: 7
rape; [27]
  Plant response rating, Rape: 10
rape; [19]
  Rape plant response rating: 10
rape; [28]
  Rape plant response rating: 0
rape; [29]
  Rape plant response rating: 7
Winter wheat [1]; Rate 62 g/ha, 0 to 100 scale
  Plant response rating, Wheat (winter): 15
Winter wheat [1]; Rate 125 g/ha, 0 to 100 scale
  Plant response rating, Wheat (winter): 30
Winter wheat [1]; Rate 250 g/ha, 0 to 100 scale (0 no effect, 100 complete control)
  Plant response rating, Wheat (winter): 70
blackgrass; [30]
  Plant response rating, Blackgrass: 60
blackgrass; [31]
  Plant response rating, Blackgrass: 30
blackgrass; Rate 250 g/ha, 0 to 100 scale
  Plant response rating, Blackgrass: 85
Green foxtail; [30]
  Plant response rating, Green foxtail: 55
Green foxtail; [31]
  Plant response rating, Green foxtail: 70
Green foxtail; Rate 250 g/ha, 0 to 100 scale
  Plant response rating, Green foxtail: 85
Italian ryegrass; [30]
  Plant response rating, I. Ryegrass: 50
Italian ryegrass; [31]
  Plant response rating, I. Ryegrass: 50
Italian ryegrass; Rate 250 g/ha, 0 to 100 scale
  Plant response rating, I. Ryegrass: 100
Winter wheat [2]; [30]
  Plant response rating, Wheat (winter): 40
Winter wheat [2]; [31]
  Plant response rating, Wheat (winter): 50
Winter wheat [2]; Rate 250 g/ha, 0 to 100 scale
  Plant response rating, Wheat (winter): 60
Wild oat; [30]
  Plant response rating, Wild oat: 20
Wild oat; [31]
  Plant response rating, Wild oat: 30
Winter barley; [30]
  Plant response rating, Barley (winter): 10
Winter barley; [31]
  Plant response rating, Barley (winter): 10
Winter barley; Rate 250 g/ha, 0 to 100 scale
  Plant response rating, Barley (winter): 85

From US6737383B1, “Herbicidal oxadiazolidines” (priority 1999, dated 2004)
